System: rats having permanent occlusion of the bilateral carotid arteries
Test: Morris Water Maze, memory dysfunction of rats caused by chronic cerebral ischemia
Assay type: in vivo, SD male rats
Settings: once per day for 37 days; for swimming time of the rats in the target: cerebral ischemia rats
Experimental: The protective effects of crystal form I of (S)-oxiracetam on memory dysfunction of rats caused by chronic cerebral ischemia. Material and method: The crystal form I of (S)-oxiracetam prepared in Example 1 and oxiracetam (batch number: 20071101, from Dong Ze Pharmaceutical Science and Technology Co., Ltd., Chong Qing, China) were prepared with normal saline solution freshly on being used. 40 SD male rats were used as experimental animals, and each of them was in a weight of 190 g to 220 g (purchased from Southwest Hospital, Chong Qing, China). The experimental animals were separated into four groups at random (10 animals per group): sham-operation group, cerebral ischemia group, experimental group with treatment of crystal form I of (S)-oxiracetam, control group with treatment of oxiracetam. The experimental group was treated with 100 mg/kg crystal form I of (S)-oxiracetam by intragastric administration, while the control group was treated with 200 mg/kg oxiracetam by intragastric administration, and both of the two group were treated once per day for 37 days since the day of beginning the surgery. The rats having permanent occlusion of the bilateral carotid arteries were used as model animals of cerebral ischemia group. The cerebral ischemia group, the experimental group and the control group were abdominally anaesthetized by 40 mg/kg pentobarbital natrium. The No. 4 threads were used to separate and ligate the bilateral carotid arteries. The arteries were cut at a position between the near and the far ligation points, and then the wounds made by cut were surgically stitched. The sham-operation group underwent surgery of separation of the bilateral carotid arteries and the wounds made by the surgeries were surgically stitched right away. The body temperature of the animals are maintained during the surgeries. Morris Water Maze system was used to assayed learning and memory ability of rats (diameter: 120 cm, height: 40 cm; purchased from Institute of Materia Medica (IMM), Chinese Academy of Medical Sciences & Peking Union Medical College). […]

Structure (SMILES) | swimming time of the rats in the target (200 mg/kg intragastric, oxiracetam control group) [s] | swimming time of the rats in the target (100 mg/kg intragastric, vs 20.18±5.26 seconds, P<0.01) [s] | escape latent periods (100 mg/kg intragastric, compared with sham-operation group, cerebral ischemia group and oxiracetam control group)
NC(=O)CN1CC(O)CC1=O (racemic) [oxiracetam, reference compound] | 31.23 ± 5.03 |  | 
NC(=O)CN1C[C@@H](O)CC1=O [crystal form I of (S)-oxiracetam, (S)-4-hydroxy-2-oxo-1-pyrrolidine acetamide] |  | 35.23 ± 7.03 | shorter escape latent periods

Source: US20130059900A1, “CRYSTAL FORM I OF (S)-4-HYDROXY-2-OXO-1-PYRROLIDINE ACETAMIDE, PREPARING METHOD AND USE THEREOF” (priority 2010, published 2013)
